From patent US9370503B1, “Compounds for treating ocular diseases” (priority 2015, dated 2016)

Legend:
ARPE-19 cells [1] = assay: MTT assay, proliferation/cytotoxicity in ARPE-19 cells; type: cell-based, human; conditions: 72 hours
Experimental: (§1) ARPE-19 cells were grown in DMEM/F12 medium supplemented with 10% FBS, 100 units/ml penicillin G, and 100 μg/ml streptomycin sulfate. HUVECs were grown in vascular cell basal medium supplemented with endothelial cell growth kit. Cells were incubated in a humidified incubator at 37° C. under 5% CO2 and 95% air.
(§2) MTT assay was used to measure the viability of ARPE-19 cells and HUVECs. 2×10^5 ARPE-19 cells or 5×10^4 HUVECs were seeded in 96-well plates (100 μl/well) and allowed to grow overnight. Negative control was prepared by adding 100 μl medium without cells. The cells were then treated with fresh medium with a compound of Formula (II) (“(II)”) (0.03, 0.1, 0.3, 1, 3 and 10 μg/ml) and/or oxidants (NaIO3, H2O2, t-BHP and NaN3) for 12, 24, or 72 hours (200 μl/well). The vehicle control group was treated with vehicle. 20 μl MTT (5 mg/ml) was added to wells, and incubated for another 4 h. After incubation, the medium was discarded and 100 μl DMSO was added to solubilize formazan produced from MTT by the viable cells. Absorbance was measured at 570 nm using a microplate reader (Bio-Rad Laboratories, Inc., CA). Cells viability was calculated according to the following formula: Viability of cells (%)=(absorbance in tested sample−absorbance in negative control)/(absorbance in vehicle control−absorbance in negative control)×100%.

HUVECs [2] = assay: MTT assay, proliferation/cytotoxicity in HUVECs; type: cell-based, human; conditions: 72 hours
Experimental: as §1, §2

[3] = Hypoxia-induced damage in HUVECs (MTT); type: cell-based, human; conditions: human, HUVECs, 10 μg/ml, P<0.01, read-out: decrease of viability of HUVECs in hypoxic condition
Experimental: as §1, §2
(§3) Cells were allowed to attach overnight, and then exposed to (II) or vehicle under hypoxic condition for 72 h. Hypoxic conditions (1% O2, 5% CO2 and 94% N2) were maintained by using a temperature and humidity controlled environmental C-chamber by O2 and CO2 controllers (Proox Model 110 and Pro CO2 Model 120, Bio Spherix Ltd., Redfield, N.Y., USA) with N2 and CO2 gas sources.

HUVECs [4] = assay: Hypoxia-induced damage in HUVECs (MTT); type: cell-based, human; conditions: 72 h
Experimental: as §1, §2, §3

ARPE-19 cells [5] = assay: NaIO3-induced injury in ARPE-19 cells (MTT); type: cell-based, human; conditions: 72 h
Experimental: as §1, §2

HUVECs [6] = assay: NaIO3-induced injury in HUVECs (MTT); type: cell-based, human; conditions: 3 and 10 μg/ml compound, 72 hours
Experimental: as §1, §2

ARPE-19 cells [7] = assay: H2O2-induced injury in ARPE-19 cells (MTT); type: cell-based, human; conditions: 10 μg/ml compound, 24 hours
Experimental: as §1, §2

HUVECs [8] = assay: H2O2-induced injury in HUVECs (MTT); type: cell-based, human; conditions: 24 hours; for enhancement of H2O2-induced injury in HUVECs: 10 μg/ml compound
Experimental: as §1, §2

ARPE-19 cells [9] = assay: NaN3-induced injury in ARPE-19 cells (MTT); type: cell-based, human; conditions: 0.03 μg/ml to 10 μg/ml compound, 72 hours
Experimental: as §1, §2

ARPE-19 cells [10] = assay: t-BHP-induced injury in ARPE-19 cells (MTT); type: cell-based, human; conditions: 12 hours
Experimental: as §1, §2

HUVECs [11] = assay: t-BHP-induced injury in HUVECs (MTT); type: cell-based, human; conditions: 12 hours
Experimental: as §1, §2

[12] = test system: rat's retinal function after ischemic insult; assay: b-wave recovery of retinal function after ischemic insult (ERG); type: in vivo; conditions: 1% instilled topically
Experimental: The retinal ischemia experiment has been described previously (Chiou et al., J. Ocular Pharmacol. 9:179-185, 1993, and Chiou et al., J. Ocular Pharmacol. 10:493-498, 1994). Electroretinograms (ERG) were carried out to assess the retinal function prior to and after the ischemic insult. ERGs were recorded using Ag/AgCl electrodes placed in contact with the cornea. One stainless steel needle was inserted subcutaneously between the two eyes as a reference electrode, and another needle was inserted subcutaneously into the neck as a ground electrode. A photostimulator (Grass PS22 Flash) was used to produce flashes of light 5 inches from the eye, and the ERG potentials were recorded on a polygraph. The ERG system was purchased from LKC Technologies, Inc. (Gaithersburg, Md.). A single flash (10 msec) of white light stimuli was used to evoke ERG a- and b-waves. Peak b-wave amplitudes were measured from the trough of the a-wave to the peak of the b-wave.
Long-Evans rats (200-250 g), dark-adapted at least 2 hours, were anaesthetized intramuscularly with ketamine (35 mg/kg) plus xylazine (5 mg/kg). Half of the initial dose was administrated at one hour intervals to maintain adequate anesthesia. The pupils were dilated with 1% tropicamide (50 μl) for ERG experiments. Retinal ischemia was produced by occlusion of the central retina and posterior ciliary arteries using a ligature placed around the optic nerve and posterior ciliary artery. The ligature was drawn tightly through a micropipette tip placed at the base of the eyeball socket to occlude the retinal vessels for 30 min. After 30 min of retinal ischemia, the ligature was liberated and the retinal arteries allowed to reperfuse. ERGs were measured at 30, 60, 90, 120, 180 and 240 min thereafter. The compounds and vehicle were administered topically before occlusion of the central retinal arteries.

potency in b-wave recovery [12]: about the same as 1% (I)
duration of drug action on b-wave recovery ([12]; after drug application): 120 min
SMILES: CC(C)=CCC/C(C)=C/Cc1c([C@@H]2CC(=O)c3c(cc(O)c(CC=C(C)C)c3O)O2)ccc(O)c1O [Formula (II)]
effect on proliferation of ARPE-19 cells (ARPE-19 cells [1]; 0.03 μg/ml to 3 μg/ml): did not affect
inhibition at 10 µg/mL (ARPE-19 cells [1]; Homo sapiens, ARPE-19, 10 μg/ml): 34%
effect on proliferation of HUVECs (HUVECs [2]; 0.03 μg/ml to 3 μg/ml): did not affect
inhibition at 10 µg/mL (HUVECs [2]; Homo sapiens, HUVEC, 10 μg/ml): 92%
cytotoxicity at 72 h, 10 μg/ml [3]: 97%
increase of viability of HUVECs in hypoxic condition (HUVECs [4]; 0.03 μg/ml): 22%
increase of viability of HUVECs in hypoxic condition (HUVECs [4]; 0.1 μg/ml): 19%
increase of viability of HUVECs in hypoxic condition (HUVECs [4]; 0.3 μg/ml): 26%
effect on viability in NaIO3-induced injury in ARPE-19 cells (ARPE-19 cells [5]; 30 μg/ml NaIO3, 0.03, 1, 3 and 10 μg/ml compound, P<0.05): significantly reversed
reversal of viability in NaIO3-induced injury in ARPE-19 cells (ARPE-19 cells [5]; 100 μg/ml NaIO3, 10 μg/ml compound): 24%
reversal of viability in NaIO3-induced injury in ARPE-19 cells (ARPE-19 cells [5]; 300 μg/ml NaIO3, 3 μg/ml compound): 7%
effect on NaIO3-induced injury in HUVECs (HUVECs [6]): enhanced
reversal of H2O2-induced injury in ARPE-19 cells (ARPE-19 cells [7]; 200 μM H2O2): 55%
reversal of H2O2-induced injury in ARPE-19 cells (ARPE-19 cells [7]; 400 μM H2O2): 72%
enhancement of H2O2-induced injury in HUVECs (HUVECs [8]; 200 μM H2O2): 63%
enhancement of H2O2-induced injury in HUVECs (HUVECs [8]; 400 μM H2O2): 42%
effect on H2O2-induced injury in HUVECs (HUVECs [8]; 0.3 and 1 μg/ml compound): reversed
effect on NaN3-induced injury in ARPE-19 cells (ARPE-19 cells [9]): significantly reversed
effect on t-BHP-induced injury in ARPE-19 cells (ARPE-19 cells [10]): significantly reversed
enhancement of t-BHP-induced injury in HUVECs (HUVECs [11]; 50 μM t-BHP, 3 μg/ml compound): 27%
enhancement of t-BHP-induced injury in HUVECs (HUVECs [11]; 50 μM t-BHP, 10 μg/ml compound): 71%
enhancement of t-BHP-induced injury in HUVECs (HUVECs [11]; 100 μM t-BHP, 3 μg/ml compound): 21%
enhancement of t-BHP-induced injury in HUVECs (HUVECs [11]; 100 μM t-BHP, 10 μg/ml compound): 80%
enhancement of t-BHP-induced injury in HUVECs (HUVECs [11]; 200 μM t-BHP, 10 μg/ml compound): 76%
